Results published in article PMC3678123 (Bioorganic & medicinal chemistry letters, 2013).
Entries after “also recorded” stand apart in the source; their conditions may differ.

molecular target: recombinant human DAAO (Homo sapiens, UniProt P14920); assay: Inhibition of recombinant human DAAO; type: biochemical; conditions: qualitative statement
Sequence (P14920 whole entry): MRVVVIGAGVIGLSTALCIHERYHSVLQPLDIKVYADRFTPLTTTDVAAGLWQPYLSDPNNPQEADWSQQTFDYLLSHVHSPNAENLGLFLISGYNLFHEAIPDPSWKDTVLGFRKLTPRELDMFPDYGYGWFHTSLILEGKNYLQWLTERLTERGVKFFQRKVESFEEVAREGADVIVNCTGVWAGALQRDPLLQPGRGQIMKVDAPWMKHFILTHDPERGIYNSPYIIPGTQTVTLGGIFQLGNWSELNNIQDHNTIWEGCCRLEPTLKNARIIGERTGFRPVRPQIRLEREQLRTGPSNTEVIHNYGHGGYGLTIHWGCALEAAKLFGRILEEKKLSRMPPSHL

SMILES | DAAO inhibitory potency (in words)
COc1coc(CO)cc1=O [6b] | complete loss of potency; also recorded: completely devoid of any inhibitory activity
COCc1cc(=O)c(O)co1 [9a] | significantly less potent than kojic acid
CCOCc1cc(=O)c(O)co1 [9b] | significantly less potent than kojic acid
O=c1cc(COc2ccccc2)occ1O [9c] | potency comparable or superior to that of kojic acid
O=c1cc(COCc2ccccc2)occ1O [9j] | dramatic loss of potency
O=c1cc(COC2CCCCO2)occ1O (stereo not drawn) [9k] | significantly less potent than kojic acid
O=c1cc(CCc2ccccc2)occ1O [compound 17, 5-hydroxy-2-phenethyl-4H-pyran-4-one] | slightly more potent than the ether counterpart 9c
O=c1ccn(CCc2ccccc2)cc1O [compound 19, 3-hydroxy-1-phenethyl-4(1H)-pyridinone] | no inhibitory activity

test system: DAAO; assay: not given; conditions: cited from earlier work

SMILES | IC50
O=c1oc2ccccc2cc1O [2b, 3-hydroxychromen-2-one] | 440 nM
O=C(O)c1ccc[nH]1 [5a, pyrrole-2-carboxylic acid] | < 10000 nM
O=C(O)c1cc[nH]n1 [5b, 1H-pyrazole-3-carboxylic acid] | < 100000 nM
O=C(O)c1cc(CCc2ccccc2)c[nH]1 [5c] | < 1000 nM
O=C(O)c1cc(CCc2ccccc2)[nH]n1 [5d] | < 1000 nM
Oc1noc2cc(Cl)ccc12 [compound 1, 6-chlorobenzo[d]isoxazol-3-ol] | 188 nM
O=c1[nH]c2c(F)cc(F)cc2n1O [compound 3, 4,6-Difluoro-1-hydroxy-1Hbenzo[d]imidazol-2(3H)-one] | 80 nM
